Tests used:
[1] = parameters: species or system rabbits; conditions: rabbit, in vivo
Procedure: Two rabbits weighing between 3.0-3.5 kg were infused intravenously (10 ml/kg body weight) with an emulsion containing 50 mg/ml of 4-methyl-3-oxo-pentanoic acid ethyl ester over a period of 5 minutes. Each rabbit received a dosage of 1.5-1.8 g over a 5 minute period. The emulsion was prepared aseptically, by emusifying sterile-filtered ester with a sterilized dispersion of egg-yolk phospholipids.
Three rabbits weighing 3.0-3.3 kg were infused intravenously (10 ml/kg body weight) with an emulsion containing 30 mg/ml of 4-methyl-3-oxo-pentanoic acid ethyl ester over a period of from 4 to 7 minutes. Each rabbit received a dosage of 0.9-1.05 g. The emulsion was prepared aseptically, by emulsifying sterile-filtered ester with a sterilized dispersion of egg-yolk phospholipids. […] The third rabbit remained normal during the whole of the infusion period. The two unconscious rabbits awakened about 2 minutes after completion of the infusion, and thereafter acted quite normally.

[2] = Admixture of ester to distilled water and amino acid solution (Vamin N), 5 days at +5°C; type: physicochemical
Procedure: 6 g of egg-yolk phospholipids were dissolved in 50 g of 5-methyl-3-oxo-hexanoic acid ethyl ester and 4-methyl-3-oxo-pentanoic acid ethyl ester respectively, while applying and stirring the system. When clear solutions had been obtained, 34 g of absolute alcohol (about 99%) were added, corresponding to the least quantity required for the solutions to remain stable in cold conditions without precipitation of phospholipids. These solutions were autoclaved at +117°C for 20 minutes. Aliquots of these solutions were taken (0.2; 1.0; 3.0 and 5% calculated on ethyl ester) and added respectively to distilled water and to an amino acid solution with a concentration of 7.18% and 9.4 g nitrogen/l (Vamin^R N). Controls were run, in which a pure product of 5-methyl-3-oxo-hexanoic acid ethyl ester and 4-methyl-3-oxo-pen tanoic acidethyl ester respectively were added to distilled water and amino acid solution respectively. All samples were shaken for 10 seconds in a shaking apparatus of the type Whirlimixer^R. The samples were then permitted to stand for 5 calender days in cold conditions (+5°C) and were read-off daily under a daylight lamp, observations being made as to the acceptable quality of the resultant emulsions (visually) or to ascertain the presence or absence of oil droplets on the surface of the emulsions, or separation thereof. […]

Row | Structure (SMILES) | time after completion of the infusion until awakening [1] | time after completion of the infusion until consciousness regained [1] | concentration to which the ester can be mixed (accepted samples) ([2]; free pure ester in amino acid solution (Vamin N)) | concentration to which the ester can be mixed (accepted samples) ([2]; free pure ester in distilled water)
1 | CCOC(=O)CC(=O)C(C)C [4-methyl-3-oxo-pentanoic acid ethyl ester] | about 2 minutes | about 2 minutes |  | 
2 | CCOC(=O)CC(=O)CC(C)C [5-methyl-3-oxo-hexanoic acid ethyl ester] |  |  | 0.2% | 0.2%

Reference: EP0366632A1, “Alternative energy substrates” (priority 1988, dated 1990)
